Patent US20130071521A1, “REBAUDIOSIDE D SWEETENERS AND FOOD PRODUCTS SWEETENED WITH REBAUDIOSIDE D” (PEPSICO, INC., priority 2007, published 2013)

Columns and labels:
[1] = test system: sensory panel of twelve testers; test: Sensory panel evaluation of initial sweetness characteristics of sweeteners in water (Example 1); type: in vivo; conditions: for behavior as compared to sucrose, all concentrations plotted: FIG. 12; for initial sweetness perception: FIG. 2/FIG. 4; for initial bitterness perception: FIG. 3/FIG. 5
Method: Sensory evaluations of different sweeteners at various concentrations were performed to provide comparative analysis of organoleptic characteristics of aqueous solutions of rebaudioside D, versus other sweeteners. The rebaudioside D was a stevia extract having a purity of at least 93% by weight rebaudioside D (Reb D). Initial sweetness characteristics of three concentrations of such Reb D in water were determined by a sensory panel of twelve testers. Sensory panels are well known to those of skill in the art, and comprise testers trained to evaluate the organoleptic attributes of comestibles. Typically, sensory panelists have been screened for their taste acuity and extensively trained in the use of standardized vocabulary to describe the appearance, aroma, flavor, mouthfeel and aftertaste of a wide variety of products, as well as scaling techniques to quantify the attributes. The numerical data generated by the sensory panel testers were then analyzed for their statistical significance.
The water employed in the tests of Example 1 comprised purified water as described in detail above, and having a pH of 7.0. The initial sweetness characteristics of 1200 parts per million (ppm) Reb D in water were compared to the initial sweetness characteristics of aqueous solutions of each of 1200 ppm rebaudioside A (Reb A), sucrose, aspartame and sucralose. The rebaudioside A was a stevia extract comprising a purity of 95% by weight rebaudioside A (PureCircle USA Inc., Oak Brook, Ill.). The specific attributes tested by the sensory panel comprised sweetness, thickness, astringency, bitterness, numbing, cooling and licorice.
The initial sweetness characteristics of other concentrations of rebaudioside D in water were also tested and compared to the same concentrations of rebaudioside A in water. […] FIGS. 2 through 5 illustrate the differences in the characteristics of sweetness and bitterness attributes between Reb D and Reb A.

[2] = test system: sensory panel of twelve testers; test: Sensory panel evaluation in water, noncarbonated beverage base and carbonated beverage base (Example 2); type: in vivo; design: Sweetness / Bitterness: scale not given here; conditions: for interaction between the sweetener and the three beverage bases (initial sweetness attribute plots): water, noncarbonated and carbonated beverage base; for Reb D Compared to Reb A % Ratio, Bitterness / Reb D Compared to Reb A % Ratio, Sweetness: ratio of Reb D to Reb A
Method: Potential beverage base effects on the initial sweetness perception of rebaudioside D were investigated by performing tests of three concentrations of rebaudioside D (Reb D) in water, in a noncarbonated beverage base, and in a carbonated beverage base, by a sensory panel of twelve testers. The numerical data generated by the sensory panel testers were then analyzed for their statistical significance.
The water employed for the tests of this Example comprised the characteristics as described in Example 1. The noncarbonated beverage base comprised purified water, and citric acid in an amount sufficient to decrease the pH of the noncarbonated beverage base to 3.1. The carbonated beverage base comprised purified water, carbon dioxide, and citric acid in an amount sufficient to decrease the pH of the noncarbonated beverage base to about 3.1. The initial sweetness characteristics of 606 parts per million (ppm) Reb D in water were compared to the initial sweetness characteristics of 606 ppm Reb D in noncarbonated beverage base and 606 ppm Reb D in carbonated beverage base.
The specific attributes tested by the sensory panel comprised sweetness, thickness, astringency, bitterness, numbing, cooling, licorice, burn/tingle and mouthcoat.

[3] = Sweetness intensity and quality of taste of steviol glycosides reported by Kinghorn (2002); conditions: from the Kinghorn values
Source text: In the book “Stevia, The genus Stevia”, edited by A. Douglas Kinghorn (2002), the structural differences, sweetness intensity and quality of taste between the steviol glycosides is reported on page 138. The relative quality of taste, as compared to stevioside, (i.e., stevioside is rated 0) of rebaudioside D was rated higher (+3) than rebaudioside A was rated (+2). Particular taste attributes that contributed to the quality of taste, however, were not individually rated. The sweetness of rebaudioside A was reported to have a value of 242, whereas the sweetness of rebaudioside D was reported to have a value of 221.

[4] = Water solubility; type: physicochemical; conditions: commercially available Reb D
Source text: The water solubility of commercially available Reb D is low, thus, according to certain embodiments of the invention, rebaudioside D is provided as a supersaturated solution of rebaudioside D in the beverage products disclosed herein. As used herein, the term “saturated” refers to the point of maximum concentration at which a solution of a substance (e.g., a rebaudioside D solution) can dissolve no more of that substance. The saturation point of a substance depends on the temperature of the liquid the substance is to be dissolved in, as well as the chemical natures of the liquid and the substance involved (e.g., the water and/or the rebaudioside D). As used herein, the term “supersaturated” refers to a solution that contains more of a dissolved material (e.g., rebaudioside D) than a saturated solution. Supersaturated solutions are typically achieved when one or more conditions of a saturated solution is changed, such as, e.g., temperature, volume (e.g., by evaporation), pressure or the like.

[5] = commonly accepted potency figures; cited from earlier work
[6] = Kinghorn (2002) page 138, cited from earlier work
[7] = 360 ppm, averaged across all three beverage bases
[8] = 606 ppm, averaged across all three beverage bases
[9] = 1200 ppm, averaged across all three beverage bases
[10] = CSD (carbonated beverage base), 360 ppm
[11] = CSD (carbonated beverage base), 606 ppm
[12] = High Level, 1200 ppm, averaged across all three beverage bases
[13] = Low-Medium Level, 360 ppm, averaged across all three beverage bases
[14] = Medium Level, 606 ppm, averaged across all three beverage bases
[15] = NCB (noncarbonated beverage base), 360 ppm
[16] = NCB (noncarbonated beverage base), 606 ppm

## C=C1C[C@@]23CC[C@H]4[C@@](C)(CCC[C@@]4(C)C(=O)O[C@@H]4O[C@H](CO)[C@@H](O)[C@H](O)[C@H]4O[C@@H]4O[C@H](CO)[C@@H](O)[C@H](O)[C@H]4O)[C@@H]2CC[C@]1(O[C@@H]1O[C@H](CO)[C@@H](O)[C@H](O[C@@H]2O[C@H](CO)[C@@H](O)[C@H](O)[C@H]2O)[C@H]1O[C@@H]1O[C@H](CO)[C@@H](O)[C@H](O)[C@H]1O)C3 [Reb D, rebaudioside D]
[1]; 360, 606 and 1200 ppm in water, FIG. 8
  overall attributes versus Reb A: less bitterness and astringency
[1]; 360 ppm and 606 ppm Reb D in water
  behavior as compared to sucrose, all concentrations plotted: behaved more like sucrose than did any of the concentrations of Reb A
[1]; 360 ppm and 606 ppm in water, FIG. 8
  attributes of lower levels versus the same levels of Reb A: less bitter, astringent, numbing and licorice
[1]; 360 ppm in water
  bitterness perception value less than same concentration of Reb A: about 30
  initial sweetness perception: about 62
  initial bitterness perception: about 8
[1]; 360 ppm in water, FIG. 7
  initial sweetness attributes versus the same concentration of Reb A: significantly less astringency, bitterness and numbing
[1]; 360 ppm in water, FIG. 11
  relative sweet properties (continuum regular sweet to artificial sweet-like) versus same concentration of Reb A: behaved more like sucrose
[1]; 600 ppm in water
  bitterness perception value less than same concentration of Reb A: about 47
[1]; 606 ppm in water, FIG. 6
  initial sweetness attributes versus the same concentration of Reb A: significantly less astringency, bitterness and numbing
[1]; 606 ppm in water, FIG. 10
  relative sweet properties (continuum regular sweet to artificial sweet-like) versus same concentration of Reb A: behaved more like sucrose
[1]; 1200 ppm Reb D in water
  behavior as compared to sucrose, all concentrations plotted: behaved more like sucrose than did either 606 ppm Reb A or 1200 ppm Reb A
[1]; 1200 ppm in water
  bitterness perception value less than same concentration of Reb A: about 67
  initial sweetness perception: about 108
  initial bitterness perception: about 18
[1]; 1200 ppm in water, FIG. 1
  initial sweetness attributes versus the same concentration of Reb A: significantly less astringency, bitterness and numbing
[1]; 1200 ppm in water, FIG. 9
  relative sweet properties (continuum regular sweet to artificial sweet-like) versus same concentration of Reb A: behaved more like sucrose
[1]; all concentrations in water
  numerical value of the bitterness perception versus Reb A: significantly lower
[1]; in water, 360 to 1200 ppm
  change in sweetness perception with an increase in concentration: significant increase in sweetness perception
  increase in bitterness perception with an increase in concentration, versus Reb A: substantially lower
[1]; in water, FIG. 6
  licorice attribute, 606 ppm Reb D versus 1200 ppm Reb D: lower value
[1]; in water, FIG. 8
  correlation to the sweetness perception attributes of sucrose, versus rebaudioside A: more highly correlated
[2]; 360 ppm
  average bitterness in each of the three beverage bases versus Reb A: lower average bitterness
  average sweetness in each of the three beverage bases versus Reb A: greater average sweetness
[2]; 360 ppm (sucrose 5.4 brix), FIGS. 16-18
  interaction between the sweetener and the three beverage bases (initial sweetness attribute plots): no significant interaction
[2]; [7]
  Reb D Compared to Reb A % Ratio, Bitterness: 37%
  Reb D Compared to Reb A % Ratio, Sweetness: 115%
[2]; 606 ppm
  average bitterness in each of the three beverage bases versus Reb A: lower average bitterness
  average sweetness in each of the three beverage bases versus Reb A: greater average sweetness
[2]; 606 ppm (sucrose 8.5 brix), FIGS. 13-15
  interaction between the sweetener and the three beverage bases (initial sweetness attribute plots): no significant interaction
[2]; [8]
  Reb D Compared to Reb A % Ratio, Bitterness: 30%
  Reb D Compared to Reb A % Ratio, Sweetness: 117%
[2]; [9]
  Reb D Compared to Reb A % Ratio, Bitterness: 40%
  Reb D Compared to Reb A % Ratio, Sweetness: 150%
[2]; [10]
  Bitterness: 18.1
  Sweetness: 63.4
[2]; [11]
  Bitterness: 14.1
  Sweetness: 73.9
[2]; [12]
  Bitterness: 17.4
  Sweetness: 105.5
[2]; [13]
  Bitterness: 7.7
  Sweetness: 60.6
[2]; [14]
  Bitterness: 9.8
  Sweetness: 74.3
[2]; [15]
  Bitterness: 10.7
  Sweetness: 58.9
[2]; [16]
  Bitterness: 7.4
  Sweetness: 85.1
[2]; Water, 360 ppm
  Bitterness: 7.7
  Sweetness: 60.6
[2]; Water, 606 ppm
  Bitterness: 9.8
  Sweetness: 74.3
[3]
  sweetness less than the sweetness of rebaudioside A: approximately 10%
[4]
  water solubility: low
[5]
  potency, times as sweet as sugar: 150-300 times as sweet as sugar
[6]
  sweetness (value reported by Kinghorn): 221
[6]; stevioside is rated 0
  relative quality of taste, as compared to stevioside: +3
